Source: publication PMC9182199, “Borylated 2,3,4,5-Tetrachlorophthalimide and Their 2,3,4,5-Tetrachlorobenzamide Analogues: Synthesis, Their Glycosidase Inhibition and Anticancer Properties in View to Boron Neutron Capture Therapy” (Molecules, 2022)
Read-outs that look alike come from different tables or passages of the source.

Legend:
[1] = tested on: Bacillus α-glucosidase; experiment: Glycosidase inhibition, laboratory 2: Bacillus α-glucosidase; format: biochemical; conditions: water
Protocol: (§1) All enzymes and para-nitrophenyl substrates were purchased from Sigma. Enzymes were assayed at 27 °C in 0.1 M citric acid/0.2 M disodium hydrogen phosphate buffers at the optimum pH for the enzyme. The incubation mixture consisted of 10 μL enzyme solution, 10 μL of 1 mg/mL aqueous solution of extract and 50 μL of the appropriate 5 mM para-nitrophenyl substrate made up in buffer at the optimum pH for the enzyme. The reactions were stopped by addition of 70 μL 0.4 M glycine (pH 10.4) during the exponential phase of the reaction, which had been determined at the beginning using uninhibited assays in which water replaced inhibitor. Final absorbances were read at 405 nm using a Versamax microplate reader (Molecular Devices). Assays were carried out in triplicate, and the values given are means of the three replicates per assay. All reactions run in water.

[2] = target: T1, Jack bean α-mannosidase (Canavalia ensiformis, UniProt C0HJB3); experiment: Glycosidase inhibition, laboratory 2: Jack bean α-mannosidase; format: biochemical; conditions: for inhibition at 400 µM: read-out: % inhibition at ~400 μM, water; for % inhibition at ~400 μM: water
T1 construct: purchased Sigma-Aldrich Co
T1 sequence (C0HJB3 1-981): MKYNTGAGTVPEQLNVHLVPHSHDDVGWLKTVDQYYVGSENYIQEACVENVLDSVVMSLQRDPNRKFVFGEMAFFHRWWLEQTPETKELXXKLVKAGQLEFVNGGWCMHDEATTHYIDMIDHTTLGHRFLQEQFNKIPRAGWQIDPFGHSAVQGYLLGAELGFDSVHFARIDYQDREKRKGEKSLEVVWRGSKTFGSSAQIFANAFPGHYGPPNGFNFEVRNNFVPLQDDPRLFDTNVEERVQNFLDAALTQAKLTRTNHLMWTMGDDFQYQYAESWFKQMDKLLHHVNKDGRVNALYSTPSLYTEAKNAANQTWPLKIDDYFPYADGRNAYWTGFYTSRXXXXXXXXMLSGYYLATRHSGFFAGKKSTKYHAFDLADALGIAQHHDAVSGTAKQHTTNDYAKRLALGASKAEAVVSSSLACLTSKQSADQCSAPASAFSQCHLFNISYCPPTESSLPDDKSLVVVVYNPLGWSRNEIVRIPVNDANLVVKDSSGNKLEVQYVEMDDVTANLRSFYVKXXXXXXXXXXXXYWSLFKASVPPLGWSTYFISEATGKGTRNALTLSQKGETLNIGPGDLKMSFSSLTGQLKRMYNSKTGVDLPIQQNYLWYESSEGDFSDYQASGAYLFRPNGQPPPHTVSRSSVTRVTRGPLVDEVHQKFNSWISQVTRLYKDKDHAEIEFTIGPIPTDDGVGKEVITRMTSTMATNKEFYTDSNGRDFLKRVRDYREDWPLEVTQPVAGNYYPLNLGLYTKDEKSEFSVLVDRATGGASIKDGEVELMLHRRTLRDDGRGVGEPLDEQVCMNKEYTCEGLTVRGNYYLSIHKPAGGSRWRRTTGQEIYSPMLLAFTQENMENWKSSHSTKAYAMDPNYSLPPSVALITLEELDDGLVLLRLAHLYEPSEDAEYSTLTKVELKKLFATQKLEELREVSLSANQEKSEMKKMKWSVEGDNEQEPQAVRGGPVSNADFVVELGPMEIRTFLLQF
Protocol: as §1

[3] = tested on: MCF-7; experiment: MTT cell growth inhibition: MCF-7; format: cell-based; conditions: MCF-7 breast carcinoma; for inhibition at 25 µM / GI50: Homo sapiens; for inhibition at 25 µM: MCF7, read-out: Percentage (%) Cell Growth Inhibition in response to 25 µM of Drug; for inhibition at 25 µM / Percentage (%) Cell Growth Inhibition in response to 25 µM of Drug: 72 h, MTT; for GI50: MCF7, read-out: GI50 = Concentration (µM) that inhibits cell growth by 50%, dose response
Protocol: All test agents were prepared as stock solutions (20 mM) in dimethyl sulfoxide (DMSO) and stored at −20 °C. Cell lines used in the study included HT29 (colorectal carcinoma); U87, SJ-G2, (glioblastoma); MCF-7, (breast carcinoma); A2780 (ovarian carcinoma); H460 (lung carcinoma); A431 (skin carcinoma); Du145 (prostate carcinoma); BE2-C (neuroblastoma); MiaPaCa-2 (pancreatic carcinoma); and SMA560 (spontaneous murine astrocytoma), together with the one non-tumour-derived normal breast cell line (MCF10A). All cell lines were incubated in a humidified atmosphere 5% CO2 at 37 °C. The cancer cell lines were maintained in Dulbecco’s modified Eagle’s medium (DMEM; Sigma, Australia) supplemented with foetal bovine serum (10%), sodium pyruvate (10 mM), penicillin (100 IUmL^−1), streptomycin (100 µg mL^−1) and L-glutamine (2 mM).
Growth inhibition was determined by plating cells in duplicate in medium (100 µL) at a density of 2500–4000 cells per well in 96-well plates. On day 0 (24 h after plating), when the cells were in logarithmic growth, medium (100 µL) with or without the test agent was added to each well. After 72 h drug exposure, growth inhibitory effects were evaluated using the MTT (3-(4,5-dimethyltiazol-2-yl)-2,5-diphenyltetrazolium bromide) assay and absorbance read at 540 nm. The percentage growth inhibition was calculated at a fixed concentration of 25 µM, based on the difference between the optical density values on day 0 and those at the end of drug exposure. Each data point is the mean ± the standard error of the mean (SEM) calculated from three replicates which were performed on separate occasions and separate cell line passages.

[4] = tested on: almond β-glucosidase; experiment: Glycosidase inhibition, laboratory 2: almond β-glucosidase; format: biochemical; conditions: water
Protocol: as §1

[5] = target: T2, A. niger amyloglucosidase (Aspergillus niger, UniProt P69328); experiment: Glycosidase inhibition, laboratory 1: amyloglucosidase; format: biochemical; conditions: for inhibition at 10 µM: read-out: inhibition % at 10 μM; for inhibition at 100 µM: read-out: inhibition % at 100 μM
T2 construct: purchased Sigma-Aldrich Co
Text: The enzymes α-glucosidase (from yeast), β-glucosidases (from almond and bovine liver), α-galactosidase (from coffee beans), β-galactosidase (from bovine liver), α-mannosidase (from Jack bean), β-mannosidase (from snail), α-L-rhamnosidase (from Penicillium decumbens), α-L-fucosidase (from bovine kidney), trehalase (from porcine kidney), β-glucuronidases (from E. coli and bovine liver), amyloglucosidase (from A. niger), para-nitrophenyl glycosides, and various disaccharides were purchased from Sigma-Aldrich Co (St Louis, MO, USA).
Brush border membranes were prepared from the rat small intestine according to the method of Kessler et al. and were assayed at pH 6.8 for rat intestinal maltase using maltose. For rat intestinal maltase, porcine kidney trehalase, and A. niger amyloglucosidase activities, the reaction mixture contained 25 mM maltose and the appropriate amount of enzyme, and the incubations were performed for 10–30 min at 37 °C. The reaction was stopped by heating at 100 °C for 3 min. After centrifugation (600× g; 10 min), the resulting reaction mixture was added to the Glucose CII-test Wako (Wako Pure Chemical Ind., Osaka, Japan). The absorbance at 505 nm was measured to determine the amount of the released D-glucose. Other glycosidase activities were determined using an appropriate para-nitrophenyl glycoside as substrate at the optimum pH of each enzyme. The reaction mixture contained 2 mM of the substrate and the appropriate amount of enzyme. The reaction was stopped by addition of 400 mM Na2CO3. The released para-nitrophenol was measured spectrometrically at 400 nm. All reactions run in methanol.

[6] = A. niger amyloglucosidase, 100 μM, methanol

T2 sequence (P69328 25-640): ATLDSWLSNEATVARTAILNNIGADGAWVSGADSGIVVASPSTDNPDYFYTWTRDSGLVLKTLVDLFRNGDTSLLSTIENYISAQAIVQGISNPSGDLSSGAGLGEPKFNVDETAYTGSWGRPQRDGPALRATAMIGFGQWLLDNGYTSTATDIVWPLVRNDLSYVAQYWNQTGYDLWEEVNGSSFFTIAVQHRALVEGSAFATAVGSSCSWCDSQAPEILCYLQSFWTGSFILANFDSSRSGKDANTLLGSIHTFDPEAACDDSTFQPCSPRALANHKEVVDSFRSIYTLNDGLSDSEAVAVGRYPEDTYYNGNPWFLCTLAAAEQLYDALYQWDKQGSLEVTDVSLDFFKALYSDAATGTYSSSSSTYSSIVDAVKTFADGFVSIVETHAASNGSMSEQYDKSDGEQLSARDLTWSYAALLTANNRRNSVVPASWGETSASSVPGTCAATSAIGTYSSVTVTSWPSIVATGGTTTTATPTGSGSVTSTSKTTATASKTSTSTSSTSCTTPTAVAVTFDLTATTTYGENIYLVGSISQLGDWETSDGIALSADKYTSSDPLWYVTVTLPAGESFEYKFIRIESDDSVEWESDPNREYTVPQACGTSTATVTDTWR

Compound	inhibition at 400 µM [2] [%]	inhibition at 25 µM [3] [%]	% inhibition at ~400 μM [1] [%]	GI50 [3] [µM]	% inhibition at ~400 μM [4] [%]	also measured
N[C@@H](Cc1ccc(B(O)O)cc1)C(=O)O [BPA, 4-borono-L-phenylalanine, reference compound]	0.6	< 0	–	–	–	% inhibition at ~400 μM ([1]; 400 µM): 19.9%; % inhibition at ~400 μM ([4]; 400 µM): 3.9%
N[C@@H](Cc1ccc(B(O)O)cc1)C(=O)O [^10B-BPA, reference compound]	–	–	–	–	–	% inhibition at ~400 μM ([1]; 400 µM): 19.5%; inhibition % at 100 μM [5, 6]: ^cNI ^d (0%); % inhibition at ~400 μM [2]: −0.7%; Percentage (%) Cell Growth Inhibition in response to 25 µM of Drug [3]: 1 ± 3%; % inhibition at ~400 μM ([4]; 400 µM): 3%
CC1(C)OB(c2cccc(CN3C(=O)c4c(Cl)c(Cl)c(Cl)c(Cl)c4C3=O)c2)OC1(C)C [meta 3, 4,5,6,7-Tetrachloro-2-(3-(4,4,5,5-tetramethyl-1,3,2-dioxaborolan-2-yl)benzyl)isoindoline-1,3-dione]	30.3	67 ± 7	31.7	23 ± 3.7	19.3	inhibition at 10 µM [5]: 3.2%
CC1(C)OB(c2cccc(NC(=O)c3cc(Cl)c(Cl)c(Cl)c3Cl)c2)OC1(C)C [meta 5, 2,3,4,5-tetrachloro-N-(3-(4,4,5,5-tetramethyl-1,3,2-dioxaborolan-2-yl)phenyl)benzamide]	2.2	16 ± 4	54.1	–	18.7	inhibition at 100 µM [5, 6]: 2.8%
CC1(C)OB(c2ccccc2NC(=O)c2cc(Cl)c(Cl)c(Cl)c2Cl)OC1(C)C [ortho 5, 2,3,4,5-Tetrachloro-N-(2-(4,4,5,5-tetramethyl-1,3,2-dioxaborolan-2-yl)phenyl)benzamide]	0	> 100	14.4	12 ± 1.2	21	inhibition at 10 µM ([5]; A. niger amyloglucosidase, 10 μM, methanol): 0%
CC1(C)OB(c2ccccc2CNC(=O)c2cc(Cl)c(Cl)c(Cl)c2Cl)OC1(C)C [ortho 8, 2,3,4,5-tetrachloro-N-(2-(4,4,5,5-tetramethyl-1,3,2-dioxaborolan-2-yl)benzyl)benzamide]	-6.1	< 0	23.7	–	83.4	inhibition at 100 µM [5]: 0%
CC1(C)OB(c2ccc(CN3C(=O)c4c(Cl)c(Cl)c(Cl)c(Cl)c4C3=O)cc2)OC1(C)C [para 3, 4,5,6,7-Tetrachloro-2-(4-(4,4,5,5-tetramethyl-1,3,2-dioxaborolan-2-yl)benzyl)isoindoline-1,3-dione]	16.5	> 100	17.9	3 ± 1.3	15.4	inhibition at 100 µM [5]: 1%
CC1(C)OB(c2ccc(NC(=O)c3cc(Cl)c(Cl)c(Cl)c3Cl)cc2)OC1(C)C [para 5, 2,3,4,5-tetrachloro-N-(4-(4,4,5,5-tetramethyl-1,3,2-dioxaborolan-2-yl)phenyl)benzamide]	-8.2	42 ± 5	20	–	11.3	inhibition at 100 µM [5, 6]: 0%
Borocaptate sodium [BSH, reference compound]	–	–	48.1	–	47.3	inhibition % at 1000 μM ([5]; A. niger amyloglucosidase, 1000 μM, methanol): ^aNI ^b (0%); % inhibition at ~400 μM [2]: −18.7%; Percentage (%) Cell Growth Inhibition in response to 25 µM of Drug [3]: 15 ± 3%
